Test results as given in US20200288710A1, “SUBSTITUTED SULPHONAMIDES FOR CONTROLLING ANIMAL PESTS” (BAYER CROPSCIENCE AKTIENGESELLSCHAFT, priority 2016, published 2020).

Assays:
Assay type in all cases: in vivo
[1] = tested on: Phaedon cochleariae; assay: Phaedon cochleariae spray test; details: foliar, 168 h, Chinese cabbage leaf discs, larvae, after 7 days, read-out: efficacy
Procedure: Phaedon cochleariae—Spray Test
To produce a suitable preparation of active compound, 1 part by weight of active compound is dissolved using the specified parts by weight of solvent and made up with water containing an emulsifier concentration of 1000 ppm until the desired concentration is attained. To produce further test concentrations, the formulation is diluted with emulsifier-containing water.
After 7 days, the efficacy in % is determined. 100% means that all the beetle larvae have been killed; 0% means that no beetle larvae have been killed.

[2] = tested on: Myzus persicae; assay: Myzus persicae oral test; details: 120 h, oral uptake, after 5 days, read-out: efficacy
Outline: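 Compound dissolved in acetone, diluted in water, then mixed 50:150 μl with IPL41 insect medium (33%+15% sugar). Mixed-population green peach aphids feed through a parafilm seal on the solution; mortality scored as % efficacy after 5 days (100% = all killed).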

[3] = tested on: Meloidogyne incognita; assay: Meloidogyne incognita test; details: 336 h, lettuce, after 14 days, read-out: nematicidal efficacy (formation of galls)
Outline: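 Active compound in acetone, diluted with water, added to sand-filled vessels with M. incognita eggs/larvae and lettuce seeds. After 14 days, efficacy scored by root gall formation: 100% = no galls, 0% = galls equal to untreated control.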

[4] = tested on: Myzus persicae; assay: Myzus persicae spray test (Chinese cabbage leaf discs); details: foliar, 120 h, 500 g/ha, after 5-6 days, read-out: efficacy
Outline: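 Chinese cabbage leaf discs infested with all stages of green peach aphid were sprayed with compound formulated in acetone/DMF and emulsifier-containing water. Efficacy in % was scored after 5-6 days, with 100% meaning all aphids killed and 0% none killed.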

SMILES | pest or weed control at 500 g/ha [1] [%] | pest or weed control at 20 ppm [2] [%] | pest or weed control at 20 ppm [3] [%] | pest or weed control at 500 g/ha [4] [%] | pest or weed control at 4 ppm ([2]; 4 ppm) [%]
CCc1ccc(Cl)cc1S(=O)(=O)NC(=O)c1cn(C)c(-c2ncccc2Cl)n1 [Example 583] | 100 | 100 | 90 | 100 | –
Cc1c(S(=O)(=O)NC(=O)c2cn(C)c(-c3c(F)cccc3F)n2)sc2ccc(Cl)cc12 [Example 324] | 100 | 100 | 90 | 100 | –
CSc1ccccc1S(=O)(=O)NC(=O)c1cn(C)c(-c2ccccc2Cl)n1 [Example 423] | 100 | 100 | 90 | 100 | –
Cc1cccc(C)c1S(=O)(=O)NC(=O)c1cn(C)c(-c2ncccc2Cl)n1 [Example 587] | 100 | 100 | 90 | 90 | –
Cc1cccc(C)c1S(=O)(=O)NC(=O)c1cn(C)c(-c2ncccc2F)n1 [Example 602] | 83 | 100 | 90 | 90 | –
Cc1cccc(C(F)(F)F)c1S(=O)(=O)NC(=O)c1cn(C)c(-c2c(F)cccc2F)n1 [Example 369] | 100 | 100 | 90 | 100 | –
Cn1cc(C(=O)NS(=O)(=O)c2cc(Br)ccc2Br)nc1-c1ccccc1Cl [Example 429] | 100 | 100 | 100 | 90 | –
Cc1cccc(C(F)(F)F)c1S(=O)(=O)NC(=O)c1cn(C)c(-c2cccc(Cl)c2Cl)n1 [Example 561] | 100 | 100 | 100 | 90 | –
CCc1cccc(F)c1S(=O)(=O)NC(=O)c1cn(C)c(-c2c(F)cccc2F)n1 [Example 338] | 100 | 100 | 100 | 90 | –
Cn1cc(C(=O)NS(=O)(=O)c2ccccc2C(F)(F)F)nc1-c1ccccc1Cl [Example 58] | 100 | 100 | 90 | 90 | –
Cc1cccc(F)c1S(=O)(=O)NC(=O)c1cn(C)c(-c2c(F)cccc2F)n1 [Example 363] | 100 | 100 | 90 | 100 | –
Cc1c(Cl)cccc1S(=O)(=O)NC(=O)c1cn(C)c(-c2c(F)cccc2F)n1 [Example 316] | 100 | 100 | 90 | 90 | –
Cc1ccc(F)cc1S(=O)(=O)NC(=O)c1cn(C)c(-c2ccccc2Cl)n1 [Example 425] | 100 | 100 | 90 | 100 | –
Cc1cc(Cl)ccc1S(=O)(=O)NC(=O)c1cn(C)c(-c2c(F)cccc2F)n1 [Example 445] | 100 | 90 | 100 | 100 | –
COc1ccc(Br)c(S(=O)(=O)NC(=O)c2cn(C)c(-c3ccccc3Cl)n2)c1 [Example 420] | 83 | 100 | 90 | 100 | –
Cc1cc(C)c(S(=O)(=O)NC(=O)c2cn(C)c(-c3c(F)cccc3F)n2)c(C)c1 [Example 436] | 100 | 100 | 90 | 90 | –

SMILES | pest or weed control at 500 g/ha [1] [%] | pest or weed control at 20 ppm [2] [%] | pest or weed control at 20 ppm [3] [%] | pest or weed control at 500 g/ha [4] [%] | pest or weed control at 4 ppm ([2]; 4 ppm) [%]
COc1ccc(Br)c(S(=O)(=O)NC(=O)c2cn(C)c(-c3ncccc3Cl)n2)c1 [Example 597] | 100 | 100 | 90 | 100 | –
Cc1cc(C(=O)NS(=O)(=O)c2cc(Cl)ccc2Br)nn1-c1c(F)cccc1F [Example 294] | 100 | 100 | 100 | 100 | –
Cc1cc(Br)ccc1S(=O)(=O)NC(=O)c1cn(C)c(-c2ccccc2Cl)n1 [Example 282] | 100 | 100 | 100 | 90 | –
Cn1cc(C(=O)NS(=O)(=O)c2cc(Cl)ccc2Cl)nc1-c1c(F)cccc1F [Example 171] | 83 | 100 | 100 | 90 | –
Cc1cccc(Cl)c1S(=O)(=O)NC(=O)c1cn(C)c(-c2cccc(Cl)c2Cl)n1 [Example 556] | 100 | 100 | 90 | 90 | –
Cc1cc(Br)ccc1S(=O)(=O)NC(=O)c1cn(C)c(-c2c(F)cccc2F)n1 [Example 446] | 100 | 100 | 90 | 90 | –
Cn1cc(C(=O)NS(=O)(=O)c2ccccc2Cl)nc1-c1c(F)cccc1Cl [Example 106] | 100 | 100 | 100 | 90 | –
Cc1cccc(C(F)(F)F)c1S(=O)(=O)NC(=O)c1cn(C)c(-c2ncccc2Cl)n1 [Example 586] | 100 | – | 90 | 100 | 100
CSc1cccc(Cl)c1S(=O)(=O)NC(=O)c1cn(C)c(-c2c(F)cccc2F)n1 [Example 385] | 100 | 100 | 90 | 100 | –
Cc1ccc(S(=O)(=O)NC(=O)c2cn(C)c(-c3ccccc3Cl)n2)cc1 [Example 164] | 100 | – | 90 | 100 | –
COc1ccc(Cl)c(S(=O)(=O)NC(=O)c2cn(C)c(-c3ncccc3Cl)n2)c1 [Example 575] | 83 | 100 | 90 | 90 | –
Cn1c(-c2c(F)cccc2F)nc(C(=O)NS(=O)(=O)c2ccccc2Cl)c1Cl [Example 550] | 100 | – | 90 | 90 | –
Cn1cc(C(=O)NS(=O)(=O)c2c(Cl)cccc2Cl)nc1-c1ccccc1Cl [Example 227] | 83 | – | 100 | 100 | –
Cn1cc(C(=O)NS(=O)(=O)c2ccccc2Cl)nc1-c1c(F)cc(F)cc1F [Example 2] | 100 | – | 90 | 90 | –
Cc1ccccc1S(=O)(=O)NC(=O)c1nc(-c2c(F)cccc2F)n(C)c1Cl [Example 552] | 83 | – | 90 | 90 | –
